pIC50: −log10 of the molar value.
The compounds below were run against T1, Core-binding factor subunit beta (Homo sapiens, UniProt Q13951) (assay: FRET Assay).
T1 sequence (Q13951 whole entry): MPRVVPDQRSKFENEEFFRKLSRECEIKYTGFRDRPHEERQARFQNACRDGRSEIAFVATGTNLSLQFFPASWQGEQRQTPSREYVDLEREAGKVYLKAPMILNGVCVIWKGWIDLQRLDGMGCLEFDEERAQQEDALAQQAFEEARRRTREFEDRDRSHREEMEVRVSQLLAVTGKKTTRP
Description: We have developed effective assays to monitor the inhibition of CBFβ-SMMHC binding to the Runt domain (as well as for CBFβ binding to the Runt domain). […] The ratio of the emission intensities at 525 nm and 474 nm, measured after excitation at 433 nm, was used as the readout in this assay.

Point of comparison: `Oc1ccc2nc(-c3ccccn3)[nH]c2c1` [US8748618, AI-10-61], pIC50 5.60. Against it:
- Cc1cc2nc(-c3ccccn3)[nH]c2cc1C [US8748618, LD-1-37] — within 0.2 log units, 5.70
- c1ccc(-c2nc3cc(-n4ccnc4)ccc3[nH]2)nc1 [US8748618, AI-10-88] — within 0.2 log units, 5.47
- Fc1cccnc1-c1nc2ccc(OC(F)(F)F)cc2[nH]1 [US8748618, AI-10-65] — 0.94 log units lower, 4.66
- CCOc1cccc2[nH]c(-c3ccccn3)nc12 [US8748618, AI-4-42] — 0.22 log units lower, 5.38
- FC(F)(F)Oc1ccc2[nH]c(-c3ccccn3)nc2c1 [US8748618, AI-10-47] — 0.40 log units higher, 6.00
- Fc1ccc2[nH]c(-c3ccccn3)nc2c1 [US8748618, LD-1-31] — the same, 5.60
- Cc1cccc2[nH]c(-c3ccccn3)nc12 [US8748618, AI-4-46] — 0.32 log units lower, 5.28
- Fc1cc2[nH]c(-c3ccccn3)nc2c(F)c1F [US8748618, AI-4-43] — 0.25 log units higher, 5.85
- Clc1cc(Cl)c2nc(-c3ccccn3)[nH]c2c1 [US8748618, AI-4-49] — 0.55 log units higher, 6.15
- COc1cccc2[nH]c(-c3ccccn3)nc12 [US8748618, AI-4-52] — 0.34 log units lower, 5.26
- c1ccc(-c2nc3ccc(N4CCOCC4)cc3[nH]2)nc1 [US8748618, AI-10-3] — 0.40 log units higher, 6.00
- CS(=O)(=O)c1ccc2nc(-c3ccccn3)[nH]c2c1 [US8748618, AI-10-37] — within 0.2 log units, 5.48
- Cc1ccc2[nH]c(-c3ccccn3)nc2c1C [US8748618, LD-1-23] — 0.23 log units lower, 5.37
- COCCOc1ccc(-c2nc3ccc(OC(F)(F)F)cc3[nH]2)nc1 [US8748618, AI-10-87] — within 0.2 log units, 5.64
- Cc1ccc2[nH]c(-c3ccccn3)nc2c1 [US8748618, LD-2-11] — within 0.2 log units, 5.54
- Fc1cc2nc(-c3ccccn3)[nH]c2cc1F [US8748618, LD-1-33] — the same, 5.60
- Clc1ccc2nc(-c3ccccn3)[nH]c2c1 [US8748618, LD-2-79] — within 0.2 log units, 5.64
- FC(F)(F)c1ccc2[nH]c(-c3ccccn3)nc2c1 [US8748618, LD-2-23] — 0.36 log units higher, 5.96
- CCOc1ccc2[nH]c(-c3ccccn3)nc2c1 [US8748618, LD-1-29 (or) AI-10-54] — 0.22 log units higher, 5.82
- FC(F)(F)c1cc(Cl)c2[nH]c(-c3ccccn3)nc2c1 [US8748618, AI-4-48] — 0.52 log units higher, 6.12
- CC(C)Oc1ccc2[nH]c(-c3ccccn3)nc2c1 [US8748618, AI-4-70 (or) LD-2-21] — 0.25 log units higher, 5.85

From BindingDB's records for patent US8748618 (University of Virginia Patent Foundation, 2014)
